Patent US4228162A (priority 1979, dated 1980)

Assays:
[1] = test system: rabbit skin; assay: Acute Percutaneous Toxicity--Rabbit
Procedure: (§1) Groups of four albino rabbits were given dosages of 1.00, 2.15, 4.64 and 10.0 ml per kg, respectively.

[2] = test system: human skin; assay: Human Patch Tests; format: in vivo
Text: Undiluted dimethyl ether of isosorbide has been tested under a closed patch of human subjects in accordance with the […] patch-test procedure originally designed by the dermatologist, B. Schwartz, M.D., and more recently adapted by R. B. Osbourn, M.D.

[3] = test system: rabbit eye; assay: Eye Irritation--Rabbit; format: in vivo
Procedure: […] was instilled into the conjunctival sac of the rabbit eye. Over a period of several years two different lots of DMI (designated here merely as A or B) were tested at different times and at various concentrations. […] The following classification of degree of irritancy, according to the terminology of […], was made for the various tests on the unwashed eye: The classification of DMI according to specifications provided in the Federal Hazardous Substances Act for the specified test and concentration are shown below: […]

[4] = Procedure: The samples were prepared using USP grade aspirin, which was dried at 110° before use. […] Spectrum b was taken after the sample (containing 10% water) was stored at 70° C. for 96 hours.
[5] = test system: external auditory canal of rabbit ear; assay: Instillation into Rabbit Ear; format: in vivo; settings: four right rabbit ears, up to 5 days
Procedure: DMI was introduced onto the external auditory canal of each of four right rabbit ears. Likewise, four other right rabbit ears were instilled with 0.35 ml of 40% DMI in water.

[6] = Preliminary toxicity of dimethyl isosorbide
Text: We use dimethyl isosorbide (DMI) as the vehicle for the liquid formulation of aspirin. […] When used internally, it is predicted that DMI will be metabolized to form isosorbide, a remedy for diuretic purposes. From the chemical structural point of view, it is seen that DMI is practically inert to aspirin degradation.

[7] = test system: rabbit skin; settings: in vivo
Procedure: as §1

[8] = test system: rats; assay: Acute Oral Toxicity--Rat; format: in vivo
Procedure: An approximate oral LD50 of dimethyl isorbide was determined.

[9] = test system: rabbit skin; settings: in vivo; remark: listed apart in the source

SMILES: CO[C@H]1CO[C@H]2[C@@H]1OC[C@H]2OC [Dimethyl isosorbide, dimethyl isosorbide]
- survival ([1]; undiluted, 1.00, 2.15, 4.64 and 10.0 ml per kg): All rabbits survived
- acute percutaneous toxicity ([1]; undiluted, rabbit skin under rubber dental dam, 24 hours): greater than 10 ml per kg of body weight
- No. of Reactors/No. of Subj. Tested, 1st Appl. ([2]; 100%, closed patch): 0/200
- No. of Reactors/No. of Subj. Tested, Both Appl. ([2]; 100%, closed patch): 2/200
- grade of reaction of the two reactors ([2]; second application only, two subjects): questionable (1) reaction
- retest of the two reactors ([2]; semiclosed patch, another site, 48 hours later): both were negative 48 hours
- primary irritant / skin sensitizer conclusion ([2]; undiluted, human skin): neither a primary irritant to the human skin nor a skin sensitizer
- Class. as Irritating Code of Federal Regulations ([3]; 40%, lot A, test 1): Negative
- No. of Eyes Positive / No. of Eyes Tested CFR ([3]; 40%, lot A, test 1): 0/6
- Average Score (out of potential 100) ([3]; 40%, lot A, test 1, 3 eyes, washed 2 sec., 1 hour): 0.0
- Average Score (out of potential 100) ([3]; 40%, lot A, test 1, 3 eyes, washed 2 sec., 24 hours): 0.0
- Average Score (out of potential 100) ([3]; 40%, lot A, test 1, 3 eyes, washed 2 sec., 48 hours): 0.0
- Average Score (out of potential 100) ([3]; 40%, lot A, test 1, 3 eyes, washed 2 sec., 72 hours): 0.0
- Average Score (out of potential 100) ([3]; 40%, lot A, test 1, 3 eyes, washed 2 sec., 96 hours): 0.0
- Average Score (out of potential 100) ([3]; 40%, lot A, test 1, 3 eyes, washed 2 sec., 7 days): 0.0
- Average Score (out of potential 100) ([3]; 40%, lot A, test 1, 6 eyes, unwashed, 1 hour): 0.0
- Average Score (out of potential 100) ([3]; 40%, lot A, test 1, 6 eyes, unwashed, 24 hours): 0.0
- Average Score (out of potential 100) ([3]; 40%, lot A, test 1, 6 eyes, unwashed, 48 hours): 0.0
- Average Score (out of potential 100) ([3]; 40%, lot A, test 1, 6 eyes, unwashed, 72 hours): 0.0
- Average Score (out of potential 100) ([3]; 40%, lot A, test 1, 6 eyes, unwashed, 96 hours): 0.0
- Average Score (out of potential 100) ([3]; 40%, lot A, test 1, 6 eyes, unwashed, 7 days): 0.0
- Classification (Kay and Calandra) ([3]; 40%, lot A, test 1, unwashed eye): Nonirritating
- Class. as Irritating Code of Federal Regulations ([3]; 60%, lot A, test 1): Negative
- No. of Eyes Positive / No. of Eyes Tested CFR ([3]; 60%, lot A, test 1): 0/6
- Average Score (out of potential 100) ([3]; 60%, lot A, test 1, 3 eyes, washed 2 sec., 1 hour): 0.0
- Average Score (out of potential 100) ([3]; 60%, lot A, test 1, 3 eyes, washed 2 sec., 24 hours): 0.0
- Average Score (out of potential 100) ([3]; 60%, lot A, test 1, 3 eyes, washed 2 sec., 48 hours): 0.0
- Average Score (out of potential 100) ([3]; 60%, lot A, test 1, 3 eyes, washed 2 sec., 72 hours): 0.0
- Average Score (out of potential 100) ([3]; 60%, lot A, test 1, 3 eyes, washed 2 sec., 96 hours): 0.0
- Average Score (out of potential 100) ([3]; 60%, lot A, test 1, 3 eyes, washed 2 sec., 7 days): 0.0
- Average Score (out of potential 100) ([3]; 60%, lot A, test 1, 6 eyes, unwashed, 1 hour): 0.0
- Average Score (out of potential 100) ([3]; 60%, lot A, test 1, 6 eyes, unwashed, 24 hours): 0.0
- Average Score (out of potential 100) ([3]; 60%, lot A, test 1, 6 eyes, unwashed, 48 hours): 0.0
- Average Score (out of potential 100) ([3]; 60%, lot A, test 1, 6 eyes, unwashed, 72 hours): 0.0
- Average Score (out of potential 100) ([3]; 60%, lot A, test 1, 6 eyes, unwashed, 96 hours): 0.0
- Average Score (out of potential 100) ([3]; 60%, lot A, test 1, 6 eyes, unwashed, 7 days): 0.0
- Classification (Kay and Calandra) ([3]; 60%, lot A, test 1, unwashed eye): Nonirritating
- Class. as Irritating Code of Federal Regulations ([3]; 80%, lot A, test 1): Negative
- No. of Eyes Positive / No. of Eyes Tested CFR ([3]; 80%, lot A, test 1): 0/6
- Average Score (out of potential 100) ([3]; 80%, lot A, test 1, 3 eyes, washed 2 sec., 1 hour): 0.0
- Average Score (out of potential 100) ([3]; 80%, lot A, test 1, 3 eyes, washed 2 sec., 24 hours): 0.0
- Average Score (out of potential 100) ([3]; 80%, lot A, test 1, 3 eyes, washed 2 sec., 48 hours): 0.0
- Average Score (out of potential 100) ([3]; 80%, lot A, test 1, 3 eyes, washed 2 sec., 72 hours): 0.0
- Average Score (out of potential 100) ([3]; 80%, lot A, test 1, 3 eyes, washed 2 sec., 96 hours): 0.0
- Average Score (out of potential 100) ([3]; 80%, lot A, test 1, 3 eyes, washed 2 sec., 7 days): 0.0
- Average Score (out of potential 100) ([3]; 80%, lot A, test 1, 6 eyes, unwashed, 1 hour): 0.0
- Average Score (out of potential 100) ([3]; 80%, lot A, test 1, 6 eyes, unwashed, 24 hours): 0.0
- Average Score (out of potential 100) ([3]; 80%, lot A, test 1, 6 eyes, unwashed, 48 hours): 0.0
- Average Score (out of potential 100) ([3]; 80%, lot A, test 1, 6 eyes, unwashed, 72 hours): 0.0
- Average Score (out of potential 100) ([3]; 80%, lot A, test 1, 6 eyes, unwashed, 96 hours): 0.0
- Average Score (out of potential 100) ([3]; 80%, lot A, test 1, 6 eyes, unwashed, 7 days): 0.0
- Classification (Kay and Calandra) ([3]; 80%, lot A, test 1, unwashed eye): Nonirritating
- Class. as Irritating Code of Federal Regulations ([3]; 100%, lot A, test 1): Positive
- No. of Eyes Positive / No. of Eyes Tested CFR ([3]; 100%, lot A, test 1): 4/6
- Average Score (out of potential 100) ([3]; 100%, lot A, test 1, 3 eyes, washed 2 sec., 1 hour): 0.0
- Average Score (out of potential 100) ([3]; 100%, lot A, test 1, 3 eyes, washed 2 sec., 24 hours): 0.0
- Average Score (out of potential 100) ([3]; 100%, lot A, test 1, 3 eyes, washed 2 sec., 48 hours): 0.0
- Average Score (out of potential 100) ([3]; 100%, lot A, test 1, 3 eyes, washed 2 sec., 72 hours): 0.0
- Average Score (out of potential 100) ([3]; 100%, lot A, test 1, 3 eyes, washed 2 sec., 96 hours): 0.0
- Average Score (out of potential 100) ([3]; 100%, lot A, test 1, 3 eyes, washed 2 sec., 7 days): 0.0
- Average Score (out of potential 100) ([3]; 100%, lot A, test 1, 6 eyes, unwashed, 1 hour): 0.0
- Average Score (out of potential 100) ([3]; 100%, lot A, test 1, 6 eyes, unwashed, 24 hours): 15.0
- Average Score (out of potential 100) ([3]; 100%, lot A, test 1, 6 eyes, unwashed, 48 hours): 10.3
- Average Score (out of potential 100) ([3]; 100%, lot A, test 1, 6 eyes, unwashed, 72 hours): 10.0
- Average Score (out of potential 100) ([3]; 100%, lot A, test 1, 6 eyes, unwashed, 96 hours): 10.0
- Average Score (out of potential 100) ([3]; 100%, lot A, test 1, 6 eyes, unwashed, 7 days): 10.0
- score of one eye (zero) ([3]; 100%, lot A, test 1, unwashed): zero
- Classification (Kay and Calandra) ([3]; 100%, lot A, test 1, unwashed eye): Cannot be classified
- maximum score of other eyes ([3]; 100%, lot A, test 1, unwashed, no other eye greater at any reading): ≤ 14
- score of one eye ([3]; 100%, lot A, test 1, unwashed, consistent score): 60-64
- Class. as Irritating Code of Federal Regulations ([3]; 100%, lot A, test 2): Negative
- No. of Eyes Positive / No. of Eyes Tested CFR ([3]; 100%, lot A, test 2): 0/6
- Average Score (out of potential 100) ([3]; 100%, lot A, test 2, 3 eyes, washed 2 sec., 1 hour): 0.0
- Average Score (out of potential 100) ([3]; 100%, lot A, test 2, 3 eyes, washed 2 sec., 24 hours): 0.0
- Average Score (out of potential 100) ([3]; 100%, lot A, test 2, 3 eyes, washed 2 sec., 48 hours): 0.0
- Average Score (out of potential 100) ([3]; 100%, lot A, test 2, 3 eyes, washed 2 sec., 72 hours): 0.0
- Average Score (out of potential 100) ([3]; 100%, lot A, test 2, 3 eyes, washed 2 sec., 96 hours): 0.0
- Average Score (out of potential 100) ([3]; 100%, lot A, test 2, 3 eyes, washed 2 sec., 7 days): 0.0
- Average Score (out of potential 100) ([3]; 100%, lot A, test 2, 6 eyes, unwashed, 1 hour): 0.0
- Average Score (out of potential 100) ([3]; 100%, lot A, test 2, 6 eyes, unwashed, 24 hours): 0.0
- Average Score (out of potential 100) ([3]; 100%, lot A, test 2, 6 eyes, unwashed, 48 hours): 0.0
- Average Score (out of potential 100) ([3]; 100%, lot A, test 2, 6 eyes, unwashed, 72 hours): 0.0
- Average Score (out of potential 100) ([3]; 100%, lot A, test 2, 6 eyes, unwashed, 96 hours): 0.0
- Average Score (out of potential 100) ([3]; 100%, lot A, test 2, 6 eyes, unwashed, 7 days): 0.0
- Classification (Kay and Calandra) ([3]; 100%, lot A, test 2, unwashed eye): Nonirritating
- Class. as Irritating Code of Federal Regulations ([3]; 100%, lot B, test 1): Negative
- No. of Eyes Positive / No. of Eyes Tested CFR ([3]; 100%, lot B, test 1): 0/6
- Average Score (out of potential 100) ([3]; 100%, lot B, test 1, 3 eyes, washed 2 sec., 1 hour): 2.7
- Average Score (out of potential 100) ([3]; 100%, lot B, test 1, 3 eyes, washed 2 sec., 24 hours): 18.0
- Average Score (out of potential 100) ([3]; 100%, lot B, test 1, 3 eyes, washed 2 sec., 48 hours): 17.3
- Average Score (out of potential 100) ([3]; 100%, lot B, test 1, 3 eyes, washed 2 sec., 72 hours): 9.4
- Average Score (out of potential 100) ([3]; 100%, lot B, test 1, 3 eyes, washed 2 sec., 96 hours): 8.7
- Average Score (out of potential 100) ([3]; 100%, lot B, test 1, 3 eyes, washed 2 sec., 7 days): 0.0
- Average Score (out of potential 100) ([3]; 100%, lot B, test 1, 6 eyes, unwashed, 1 hour): 3.7
- Average Score (out of potential 100) ([3]; 100%, lot B, test 1, 6 eyes, unwashed, 24 hours): 11.3
- Average Score (out of potential 100) ([3]; 100%, lot B, test 1, 6 eyes, unwashed, 48 hours): 5.6
- Average Score (out of potential 100) ([3]; 100%, lot B, test 1, 6 eyes, unwashed, 72 hours): 5.0
- Average Score (out of potential 100) ([3]; 100%, lot B, test 1, 6 eyes, unwashed, 96 hours): 5.0
- Average Score (out of potential 100) ([3]; 100%, lot B, test 1, 6 eyes, unwashed, 7 days): 4.6
- score of one other eye (zero) ([3]; 100%, lot B, test 1, unwashed): zero
- Classification (Kay and Calandra) ([3]; 100%, lot B, test 1, unwashed eye): Mildly irritating
- score of one eye ([3]; 100%, lot B, test 1, unwashed, consistently): 28-30
- variability in response of individual rabbit eyes ([3]; undiluted): considerable variability in the response of individual rabbit eyes
- chemical interaction with aspirin / induction of aspirin degradation [4]: does not interact chemically with aspirin, not does it induce the degradation of aspirin
- irritation to the integument of the external auditory canal ([5]; 0.35 ml of 40% DMI in water): No irritation to the integument of the external auditory canal was observed
- irritation to the integument of the external auditory canal ([5]; DMI): No irritation to the integument of the external auditory canal was observed
- toxicity (preliminary studies) [6]: practically nontoxic
- erythema [7]: transitory mild to moderate erythema
- gross pathological findings [7]: No gross pathological findings
- Signs of intoxication [8]: depression, lacrimation, labored respiration, tachcardia and ataxia
- classification for acute oral toxicities (Hodge and Sterner) [8]: practically nontoxic
- examination of the tissues of the animals that died ([8]; 6.81 and 10.0 ml/kg): hyperemic lungs, slight irritation of the small intestine and congestion of kidneys and adrenals
- mortality ([8]; 6.81 and 10.0 ml/kg): all of the 10 rats given the two higher dosages died
- individual score of single positive reading [9]: 1.0
- score (edema or erythema) [9]: No score (edema or erythema) was obtained on any of the rabbits
